Molecules are shown by their SMILES.

The experiment has as its target NLRP3 (purified) (Homo sapiens, UniProt Q96P20, K138A/K142A/R137C). The experiment in a line: fluorescence polarization displacement. Type of experiment: binding.

NLRP3 (purified), sequence (Q96P20 136-1034 R137C/K138A/K142A): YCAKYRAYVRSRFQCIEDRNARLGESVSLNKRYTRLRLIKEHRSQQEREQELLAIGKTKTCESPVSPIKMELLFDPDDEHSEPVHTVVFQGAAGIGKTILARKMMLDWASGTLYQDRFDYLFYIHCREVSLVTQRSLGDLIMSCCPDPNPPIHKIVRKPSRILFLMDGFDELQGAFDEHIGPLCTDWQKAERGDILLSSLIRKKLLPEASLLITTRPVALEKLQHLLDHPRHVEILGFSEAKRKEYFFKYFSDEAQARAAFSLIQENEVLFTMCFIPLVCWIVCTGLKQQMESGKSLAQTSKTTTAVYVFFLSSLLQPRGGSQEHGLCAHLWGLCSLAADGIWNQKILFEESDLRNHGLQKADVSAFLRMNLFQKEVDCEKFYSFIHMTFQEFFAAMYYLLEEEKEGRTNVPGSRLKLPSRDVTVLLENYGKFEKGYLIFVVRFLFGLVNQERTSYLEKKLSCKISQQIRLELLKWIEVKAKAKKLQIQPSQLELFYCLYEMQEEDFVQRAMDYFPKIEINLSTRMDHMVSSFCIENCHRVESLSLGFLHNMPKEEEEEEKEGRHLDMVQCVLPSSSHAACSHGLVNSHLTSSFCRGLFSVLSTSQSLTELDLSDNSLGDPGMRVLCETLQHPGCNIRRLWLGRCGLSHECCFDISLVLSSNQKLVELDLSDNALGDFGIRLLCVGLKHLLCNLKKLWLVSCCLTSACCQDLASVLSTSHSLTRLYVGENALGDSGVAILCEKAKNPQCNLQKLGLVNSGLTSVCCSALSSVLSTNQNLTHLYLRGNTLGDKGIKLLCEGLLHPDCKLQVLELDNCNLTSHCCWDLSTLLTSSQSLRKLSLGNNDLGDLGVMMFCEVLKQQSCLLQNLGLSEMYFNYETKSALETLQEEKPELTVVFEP

The compound `O=C(CN1C[C@@H](C(F)(F)F)c2cc(I)ccc2C1=O)Nc1ncc(F)cn1` [TN-783, N-(5-fluoropyrimidin-2-yl)-2-[(4s)-6-iodo-1-oxo-4-(trifluoromethyl)-3,4-dihydroisoquinolin-2-yl]acetamide] yielded an IC50 of 19.3 ± 2.2 nM.

The values are drawn from doi:10.1101/2025.10.06.680810v1 (biorxiv, 2025).
